In US4916130A, “Platelet agglutination-inhibiting agent” (Green Cross Corporation, priority 1987, dated 1990):

Key:
[1] = test system: platelets (platelet-rich plasma), agglutination induced by arachidonic acid; test: Inhibition of platelet agglutination induced by arachidonic acid (rat PRP, aggligometer); format: cell-based; conditions: 37° C., arachidonic acid 1 mM, 50% effective concentration from onset time of agglutination vs control group
Method: (§1) Blood was collected from the abdominal aorta of a sacrificed rat. The obtained blood was then mixed with a solution of 3.9% sodium citrate at a ratio of one part by volume of sodium citrate solution to nine parts by volume of the blood. The mixture was […] at 116×g for 10 minutes to give a platelet-rich plasma (PRP). The supernatant was further centrifuged at 1,638×g for 10 minutes to give a platelet-poor plasma (PPP). The PRP was diluted with the PPP so as to give a platelet concentration of […].
(§2) The agglutination of platelets was determined with an aggligometer (RINKADENKI HUSM type). Sample solutions of 25 μl were obtained by dissolving each test compound in methanol and adding the resulting solution to a physiological saline solution so as to give a final methanol concentration of 1%. These sample solutions were then added to 225 μl of PRP preliminarily maintained at 37° C. while stirring at 800 rpm. Three minutes thereafter, 50 μl of an agglutination inducer was added thereto while continuously stirring.
Arachidonic acid, when employed as the agglutination inducer, was added at a concentration of 1 mM. The 50% effective concentration of each test compound was calculated by comparing the onset time from the addition of the arachidonic acid to the initiation of the agglutination with that of the control group.

[2] = test system: platelets (platelet-rich plasma), agglutination induced by collagen; test: Inhibition of platelet agglutination induced by collagen (rat PRP, aggligometer); format: cell-based; conditions: 37° C., collagen 0.14 mg/ml, from inhibition ratio for maximum thrombotic agglutination
Method: as §1, §2
Collagen, when employed as the agglutination inducer, was added at a concentration of 0.14 mg/ml. The 50% inhibition concentration of each test compound was calculated from the inhibition ratio thereof for the maximum thrombotic agglutination.

Row | SMILES | IC50 [1] [µM] | IC50 [2] [µM]
1 | CCC=CC(=O)NCCSSCCNC(=O)C=CCC [Compound 1, [SCH2 CH2 NH--COCH=CHCH2 CH3]2] | 13 | 15
2 | CCCC=CC(=O)NCCSSCCNC(=O)C=CCCC [Compound 2, [SCH2 CH2 NH--COCH=CH(CH2)2 CH3]2] | 6.7 | 4
3 | CCCCC=CC(=O)NCCSSCCNC(=O)C=CCCCC [Compound 3, [SCH2 CH2 NH--COCH=CH(CH2)3 CH3]2] | 17 | 26
4 | CCCCCC=CC(=O)NCCSSCCNC(=O)C=CCCCCC [Compound 4, [SCH2 CH2 NH--COCH=CH(CH2)4 CH3]2] | 135 | 290
